Positions of bridges follow the written chain, without caps; N, C: chain ends. Non-standard residues stand in square brackets, D forms with d. Residues, ends and D or L forms follow the SMILES beside them. ξ: configuration not given here. *: point of attachment. Phe(4-COOH) = N[C@@H](Cc1ccc(C(=O)O)cc1)C(=O)O; Ala(4-thiazolyl) = N[C@@H](Cc1cscn1)C(=O)O; Bip = N[C@@H](Cc1ccc(-c2ccccc2)cc1)C(=O)O; Val(3-OH) = CC(C)(O)[C@H](N)C(=O)O; NMeF = CN[C@@H](Cc1ccccc1)C(=O)O; 3Pal = N[C@@H](Cc1cccnc1)C(=O)O; 4Pal = N[C@@H](Cc1ccncc1)C(=O)O; Cha = N[C@@H](CC1CCCCC1)C(=O)O; hSer = N[C@@H](CCO)C(=O)O; ξR = N=C(N)NCCCC(N)C(=O)O; Carboxymethyl = O=C(O)C*; NMeA = CN[C@@H](C)C(=O)O; Orn = NCCC[C@H](N)C(=O)O; Dab = NCC[C@H](N)C(=O)O; ξE = NC(CCC(=O)O)C(=O)O; Sar = CNCC(=O)O
Biological target: T1, human PD-1 (Jurkat-PD-1 cells) / PE-labeled human PD-L1-Ig (Homo sapiens, UniProt Q15116)
T1 construct: expressed in transfected cells; host or cells: Jurkat cell line over-expressing human PD-1
Test: Jurkat-PD-1 Cell Binding High-Content Screening Assay (CBA); Jurkat hPD1-PDL1 assay
Conditions: Jurkat cell line over-expressing human PD-1; PE-labeled PD-L1-Ig 20 nM final; compound incubated 2 hours at 37° C.; read-out: Jurkat HPD1-PDL1 IC50
How it was run: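 Binding of phycoerythrin-conjugated PD-L1-Ig (20 nM final) to PD-1-overexpressing Jurkat cells was read by high-content imaging. Cells in DMEM/10% FCS were exposed to compound for 2 hours at 37° C before labeled ligand was added.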

T1 sequence (Q15116 25-288): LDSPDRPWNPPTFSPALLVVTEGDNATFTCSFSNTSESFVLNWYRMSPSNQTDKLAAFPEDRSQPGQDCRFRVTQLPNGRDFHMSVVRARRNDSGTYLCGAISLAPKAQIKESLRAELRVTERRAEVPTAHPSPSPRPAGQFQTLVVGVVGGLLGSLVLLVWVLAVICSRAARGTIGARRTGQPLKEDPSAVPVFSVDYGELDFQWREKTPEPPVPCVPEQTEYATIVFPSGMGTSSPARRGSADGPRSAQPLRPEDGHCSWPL

Compound	IC50 [µM]
CC(C)C[C@@H]1NC(=O)[C@H](CCCNC(=N)N)NC(=O)[C@H](Cc2ccccc2)N(C)C(=O)[C@H](C)N(C)C(=O)[C@H](CCCNC(=N)N)NC(=O)[C@H](Cc2ccc(-c3ccccc3)cc2)NC(=O)[C@H](C(C)C)NC(=O)[C@H](Cc2c[nH]c3ccccc23)NC(=O)[C@H](CC(=O)O)NC(=O)[C@H](Cc2ccc(O)cc2)NC(=O)[C@H](CCC(N)=O)NC(=O)CSC[C@@H](C(=O)N[C@@H](C)C(N)=O)NC(=O)[C@H]([C@@H](C)O)NC(=O)[C@H](C(C)C)NC1=O [Example 1323] ({CH2CO}-QYDWV[Bip]R[NMeA][NMeF]RLVTCA-NH2; thioether N-14)	0.51
CC(C)C[C@@H]1NC(=O)[C@H](Cc2c[nH]c3ccccc23)NC(=O)[C@H](CC(=O)O)NC(=O)[C@H](Cc2ccc(OCC(=O)O)cc2)NC(=O)[C@H](Cc2ccncc2)NC(=O)CSC[C@@H](C(=O)N[C@@H](CCN)C(N)=O)NC(=O)[C@H](CO)NC(=O)[C@H](C(C)(C)O)NC(=O)[C@H](CC2CCCCC2)NC(=O)[C@H](CCN)NC(=O)[C@H]2CCCN2C(=O)[C@H](C)N(C)C(=O)[C@H](C(C)C)NC(=O)[C@H](Cc2ccc(-c3ccccc3)cc2)NC1=O [Example 1185] ({CH2CO}-[4Pal]Y(Carboxymethyl)DWL[Bip]V[NMeA][dP][Dab][Cha][Val(3-OH)]SC[Dab]-NH2; thioether N-14)	0.03
CC(C)C[C@@H]1NC(=O)[C@H](CCCNC(=N)N)NC(=O)CN(C)C(=O)[C@H](C)N(C)C(=O)[C@H](C(C)C)NC(=O)[C@H](Cc2ccc(-c3ccccc3)cc2)NC(=O)[C@H](Cc2ccc(O)cc2)NC(=O)[C@H](Cc2c[nH]c3ccccc23)NC(=O)[C@H](CC(=O)O)NC(=O)[C@H](Cc2ccc(O)cc2)NC(=O)[C@H](Cc2ccccc2)NC(=O)CSC[C@@H](C(=O)NCC(N)=O)NC(=O)[C@H](CO)NC(=O)[C@H](C(C)C)NC1=O [Example 1236] ({CH2CO}-FYDWY[Bip]V[NMeA][Sar]RLVSCG-NH2; thioether N-14)	0.44
CC(C)C[C@@H]1NC(=O)[C@H](CCCN)NC(=O)[C@H](Cc2ccccc2)N(C)C(=O)[C@H](C)N(C)C(=O)[C@H](CCC(=O)O)NC(=O)[C@H](Cc2ccc(-c3ccccc3)cc2)NC(=O)[C@H](C(C)C)NC(=O)[C@H](Cc2c[nH]c3ccccc23)NC(=O)[C@H](CC(=O)O)NC(=O)[C@H](Cc2ccc(O)cc2)NC(=O)[C@H](Cc2ccccc2)NC(=O)CSC[C@@H](C(=O)N[C@@H](CCC(=O)O)C(N)=O)NC(=O)[C@H]([C@@H](C)O)NC(=O)[C@H](C(C)C)NC1=O [Example 1350] ({CH2CO}-FYDWV[Bip]E[NMeA][NMeF][Orn]LVTCE-NH2; thioether N-14)	0.21
CC(C)C[C@@H]1NC(=O)[C@H](Cc2c[nH]c3ccccc23)NC(=O)[C@H](CC(=O)O)NC(=O)[C@H](Cc2ccc(O)cc2)NC(=O)[C@H](Cc2cscn2)NC(=O)CSC[C@@H](C(=O)NCC(N)=O)NC(=O)[C@H](CO)NC(=O)[C@H](C(C)C)NC(=O)[C@H](CC(C)C)NC(=O)[C@H](CC(N)=O)NC(=O)CN(C)C(=O)[C@H](C)N(C)C(=O)[C@H](C(C)C)NC(=O)[C@H](Cc2ccc(-c3ccccc3)cc2)NC1=O [Example 1132] ({CH2CO}-[Ala(4-thiazolyl)]YDWL[Bip]V[NMeA][Sar]NLVSCG-NH2; thioether N-14)	0.53
CC(C)C[C@@H]1NC(=O)[C@H](CCCNC(=N)N)NC(=O)[C@H]2CCCN2C(=O)[C@H](C)N(C)C(=O)[C@H](C(C)C)NC(=O)[C@H](Cc2ccc(-c3ccccc3)cc2)NC(=O)[C@H](C(C)C)NC(=O)[C@H](Cc2c[nH]c3ccccc23)NC(=O)[C@H](CC(=O)O)NC(=O)[C@H](Cc2ccc(O)cc2)NC(=O)[C@H](Cc2ccccc2)NC(=O)CSC[C@@H](C(=O)N[C@@H](C)C(N)=O)NC(=O)[C@H](CO)NC(=O)[C@H](C(C)C)NC1=O [Example 1075] ({CH2CO}-FYDWV[Bip]V[NMeA][dP]RLVSCA-NH2; thioether N-14)	0.2
CC(C)C[C@@H]1NC(=O)[C@H](CCCNC(=N)N)NC(=O)[C@H](Cc2ccccc2)N(C)C(=O)[C@H](C)N(C)C(=O)[C@H](CCCNC(=N)N)NC(=O)[C@H](Cc2ccc(-c3ccccc3)cc2)NC(=O)[C@H](C(C)C)NC(=O)[C@H](Cc2c[nH]c3ccccc23)NC(=O)[C@H](CC(=O)O)NC(=O)[C@H](Cc2ccc(O)cc2)NC(=O)[C@H](CCC(N)=O)NC(=O)CSC[C@@H](C(=O)NCC(N)=O)NC(=O)[C@H]([C@@H](C)O)NC(=O)[C@H](C(C)C)NC1=O [Example 1311] ({CH2CO}-QYDWV[Bip]R[NMeA][NMeF]RLVTCG-NH2; thioether N-14)	0.75
CC(C)C[C@@H]1NC(=O)C(CCC(=O)O)NC(=O)[C@H](Cc2ccccc2)N(C)C(=O)[C@H](C)N(C)C(=O)[C@H](CCCNC(=N)N)NC(=O)[C@H](Cc2ccc(-c3ccccc3)cc2)NC(=O)[C@H](C(C)C)NC(=O)[C@H](Cc2c[nH]c3ccccc23)NC(=O)[C@H](CC(=O)O)NC(=O)[C@H](Cc2ccc(O)cc2)NC(=O)[C@H](Cc2ccccc2)NC(=O)CSC[C@@H](C(=O)NCC(N)=O)NC(=O)[C@H](CO)NC(=O)[C@H](C(C)C)NC1=O (stereo partly drawn) [Example 1221] ({CH2CO}-FYDWV[Bip]R[NMeA][NMeF][ξE]LVSCG-NH2; thioether N-14)	0.5
CC(C)C[C@@H]1NC(=O)[C@H](CC(N)=O)NC(=O)[C@H]2CCCN2C(=O)[C@H](C)N(C)C(=O)[C@H](C(C)C)NC(=O)[C@H](Cc2ccc(-c3ccccc3)cc2)NC(=O)[C@@H](CC(C)C)NC(=O)[C@H](Cc2c[nH]c3ccccc23)NC(=O)[C@H](CC(=O)O)NC(=O)[C@H](Cc2ccc(C(=O)O)cc2)NC(=O)[C@H](Cc2ccncc2)NC(=O)CSC[C@@H](C(=O)N[C@@H](C)C(N)=O)NC(=O)[C@@H](CO)NC(=O)[C@H](C(C)C)NC1=O [Example 1389] ({CH2CO}-[4Pal][Phe(4-COOH)]DW[dL][Bip]V[NMeA][dP]NLV[dS]CA-NH2; thioether N-14)	0.05

More lines, now with the values ahead:

IC50 [µM]	Compound
0.42	CC(C)C[C@@H]1NC(=O)[C@H](CCCN)NC(=O)[C@H](Cc2ccccc2)N(C)C(=O)[C@H](C)N(C)C(=O)[C@H](CCCNC(=N)N)NC(=O)[C@H](Cc2ccc(-c3ccccc3)cc2)NC(=O)[C@H](C(C)C)NC(=O)[C@H](Cc2c[nH]c3ccccc23)NC(=O)[C@H](CC(=O)O)NC(=O)[C@H](Cc2ccc(O)cc2)NC(=O)[C@H](CC(N)=O)NC(=O)CSC[C@@H](C(=O)N[C@@H](CCC(=O)O)C(N)=O)NC(=O)[C@H]([C@@H](C)O)NC(=O)[C@H](C(C)C)NC1=O [Example 1352] ({CH2CO}-NYDWV[Bip]R[NMeA][NMeF][Orn]LVTCE-NH2; thioether N-14)
0.86	CC(C)C[C@@H]1NC(=O)[C@H](Cc2c[nH]c3ccccc23)NC(=O)[C@H](CC(=O)O)NC(=O)[C@H](Cc2ccc(O)cc2)NC(=O)[C@H](Cc2ccccc2)NC(=O)CSC[C@@H](C(=O)N[C@@H](C)C(N)=O)NC(=O)[C@H](CCO)NC(=O)[C@H](C(C)C)NC(=O)[C@H](CC(C)C)NC(=O)[C@H](CC(N)=O)NC(=O)CN(C)C(=O)[C@H](C)N(C)C(=O)[C@H](C(C)C)NC(=O)[C@H](Cc2ccc(-c3ccccc3)cc2)NC1=O [Example 1159] ({CH2CO}-FYDWL[Bip]V[NMeA][Sar]NLV[hSer]CA-NH2; thioether N-14)
0.61	CC(C)C[C@@H]1NC(=O)C(CCCNC(=N)N)NC(=O)[C@H](Cc2ccccc2)N(C)C(=O)[C@H](C)N(C)C(=O)[C@H](CCCNC(=N)N)NC(=O)[C@H](Cc2ccc(-c3ccccc3)cc2)NC(=O)[C@H](C(C)C)NC(=O)[C@H](Cc2c[nH]c3ccccc23)NC(=O)[C@H](CC(=O)O)NC(=O)[C@H](Cc2ccc(O)cc2)NC(=O)[C@H](Cc2ccccc2)NC(=O)CSC[C@@H](C(=O)NCC(N)=O)NC(=O)[C@H](CCC(=O)O)NC(=O)[C@H](C(C)C)NC1=O (stereo partly drawn) [Example 1219] ({CH2CO}-FYDWV[Bip]R[NMeA][NMeF][ξR]LVECG-NH2; thioether N-14)
0.46	CC(C)C[C@@H]1NC(=O)[C@H](CCN)NC(=O)[C@H](Cc2ccccc2)N(C)C(=O)[C@H](C)N(C)C(=O)[C@H](CCCNC(=N)N)NC(=O)[C@H](Cc2ccc(-c3ccccc3)cc2)NC(=O)[C@H](C(C)C)NC(=O)[C@H](Cc2c[nH]c3ccccc23)NC(=O)[C@H](CC(=O)O)NC(=O)[C@H](Cc2ccc(O)cc2)NC(=O)[C@H](Cc2cccnc2)NC(=O)CSC[C@@H](C(=O)N[C@@H](C)C(N)=O)NC(=O)[C@H](CO)NC(=O)[C@H](C(C)C)NC1=O [Example 1306] ({CH2CO}-[3Pal]YDWV[Bip]R[NMeA][NMeF][Dab]LVSCA-NH2; thioether N-14)
0.17	CC(C)C[C@@H]1NC(=O)CSC[C@@H](C(=O)NCC(N)=O)NC(=O)[C@H](CO)NC(=O)[C@H](C(C)C)NC(=O)[C@H](CC(C)C)NC(=O)[C@H](CCN)NC(=O)[C@H](Cc2ccccc2)N(C)C(=O)[C@H](C)N(C)C(=O)[C@H](CCCNC(=N)N)NC(=O)[C@H](Cc2ccc(-c3ccccc3)cc2)NC(=O)[C@H](C(C)C)NC(=O)[C@H](Cc2c[nH]c3ccccc23)NC(=O)[C@H](CC(=O)O)NC(=O)[C@H](Cc2ccc(O)cc2)NC1=O [Example 1289] ({CH2CO}-LYDWV[Bip]R[NMeA][NMeF][Dab]LVSCG-NH2; thioether N-14)
0.32	CC(C)C[C@@H]1NC(=O)[C@H](CC(N)=O)NC(=O)[C@H](Cc2ccccc2)N(C)C(=O)[C@H](C)N(C)C(=O)[C@H](CCCNC(=N)N)NC(=O)[C@H](Cc2ccc(-c3ccccc3)cc2)NC(=O)[C@H](C(C)C)NC(=O)[C@H](Cc2c[nH]c3ccccc23)NC(=O)[C@H](CC(=O)O)NC(=O)[C@H](Cc2ccc(O)cc2)NC(=O)[C@H](Cc2ccccc2)NC(=O)CSC[C@@H](C(=O)NCC(N)=O)NC(=O)[C@H](CO)NC(=O)[C@H](C(C)C)NC1=O [Example 1207] ({CH2CO}-FYDWV[Bip]R[NMeA][NMeF]NLVSCG-NH2; thioether N-14)

— US20240360178A1, “MACROCYCLIC IMMUNOMODULATORS” (Bristol-Myers Squibb Company, priority 2021, published 2024)
